Results published in patent US20080269291A1, “Chemical Compounds” (priority 2005, published 2008).

Molecular target: T1, Recombinant human IKKβ (residues 1-737) (Homo sapiens, UniProt O14920)
T1 construct: Recombinant human IKKβ (residues 1-737); GST (C); made in house
T1 sequence (O14920 1-737): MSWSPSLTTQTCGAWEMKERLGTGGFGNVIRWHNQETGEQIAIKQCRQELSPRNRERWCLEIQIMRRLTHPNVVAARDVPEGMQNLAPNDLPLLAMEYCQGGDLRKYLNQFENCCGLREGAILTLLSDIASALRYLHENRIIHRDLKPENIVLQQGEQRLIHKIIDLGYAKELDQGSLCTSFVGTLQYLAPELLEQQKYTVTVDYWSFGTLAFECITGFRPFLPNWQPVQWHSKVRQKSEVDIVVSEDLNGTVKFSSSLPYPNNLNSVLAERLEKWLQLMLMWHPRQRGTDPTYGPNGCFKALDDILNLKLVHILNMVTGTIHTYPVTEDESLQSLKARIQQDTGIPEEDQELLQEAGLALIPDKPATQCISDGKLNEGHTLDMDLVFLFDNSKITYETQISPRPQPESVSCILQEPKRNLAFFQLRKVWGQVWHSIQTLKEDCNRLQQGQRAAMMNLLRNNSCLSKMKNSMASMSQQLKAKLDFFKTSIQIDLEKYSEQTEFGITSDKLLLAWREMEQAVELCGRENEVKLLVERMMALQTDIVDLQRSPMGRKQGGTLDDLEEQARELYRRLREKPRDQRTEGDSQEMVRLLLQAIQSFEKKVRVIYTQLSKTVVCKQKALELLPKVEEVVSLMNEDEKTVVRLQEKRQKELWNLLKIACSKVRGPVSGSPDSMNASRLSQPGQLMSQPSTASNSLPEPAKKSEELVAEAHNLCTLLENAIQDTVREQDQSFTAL
Experiment: IKK2 Assay (TR-FRET)
Type: biochemical
Conditions: activity against IKK2, IKK2 5 nM, GST-IκBα substrate 25 nM, ATP 1 μM, 30 minutes at room temperature
Description: Recombinant human IKKβ (residues 1-737) was expressed in baculovirus as a C-terminal GST-tagged fusion protein, and its activity was assessed using a time-resolved fluorescence resonance energy transfer (TR-FRET) assay. Briefly, IKK2 (5 nM final) diluted in assay buffer (50 mM HEPES, 10 mM MgCl2, 1 mM CHAPS pH 7.4 with 1 mM DTT and 0.01% w/v BSA) was added to wells containing various concentrations of compound or DMSO vehicle (3% final). The reaction was initiated by the addition of GST-IκBα substrate (25 nM final)/ATP (1 μM final), in a total volume of 30 μL. The reaction was incubated for 30 minutes at room temperature, then terminated by the addition of 15 μL of 50 mM EDTA. Detection reagent (15 μl) in buffer (100 mM HEPES pH 7.4, 150 mM NaCl and 0.1% w/v BSA) containing antiphosphoserine-licBa-32/36 monoclonal antibody 12C2 (Cell Signalling Technology, Beverly Mass., USA) labelled with W-1024 europium chelate (Wallac OY, Turku, Finland), and an APC-labelled anti-GST antibody (Prozyme, San Leandro, Calif., USA) was added and the reaction was further incubated for 60 minutes at room temperature. The degree of phosphorylation of GST-IκBα was measured using a Packard Discovery plate reader (Perkin-Elmer Life Sciences, Pangbourne, UK) as a ratio of specific 665 nm energy transfer signal to reference europium 620 nm signal.

IC50: 25.1 µM
Structure (SMILES): CCS(=O)(=O)N1CCC(c2c[nH]c3c(C(N)=O)cc(S(=O)(=O)c4ccc(C)cc4)cc23)CC1 [Example 48, 3-[1-(ethylsulfonyl)-4-piperidinyl]-5-[(4-methylphenyl)sulfonyl]-1H-indole-7-carboxamide]
